Assay results published in patent US12234230B2, “Substituted benzyl-triazole compounds for Cbl-b inhibition, and further uses thereof” (Nurix Therapeutics, Inc., priority 2019, dated 2025).

Experiments:
[1] = molecular target: T1, Cbl-b (Homo sapiens (Human), UniProt Q13191); experiment: Cbl-b displacement assay (Cbl-b inhibition assay), Biological Example 1; format: binding
Procedure: (§1) The ability of candidate compounds to displace a known inhibitor and thereby inhibit Cbl-b activity was measured by monitoring the interaction of Cbl-b with a fluorophore-labeled probe in the presence of the candidate compound.
Following the one hour incubation, the plates were read for TR-FRET signal at 520/620 nm using an Envision plate reader (Perkin Elmer).

[2] = molecular target: T1, Cbl-b; experiment: Cbl-b displacement assay (Cbl-b inhibition assay), Biological Example 8; format: binding; conditions: 0.125 nM Cbl-b final concentration (Low); Table 8-1
Procedure: (§2) Candidate compounds were evaluated for their ability to bind and inhibit Cbl-b, an E3 ubiquitin-protein ligase, as evidenced by their ability to displace a fluorophore-labeled probe bound to Cbl-b.
as §1
(§3) Fluorescently-labeled inhibitor probe was synthesized and tagged with BODIPY FL. […] Following the one hour incubation, the plates were read for TR-FRET signal at 520/620 nm using an Envision plate reader (Perkin Elmer).
(§4) The resulting data for the Cbl-b activity assays were analyzed using standard methods to determine the IC50 values for the tested compounds.

[3] = molecular target: T1, Cbl-b; experiment: Cbl-b displacement assay (Cbl-b inhibition assay), Biological Example 11; format: binding; conditions: 0.125 nM Cbl-b final concentration (Low); Table 11-1
Procedure: as §2, §1, §3, §4

[4] = tested on: primary human total T-cells; experiment: Primary human total T-cell activation (IL-2 secretion, CD25 surface staining), Biological Example 2; conditions: fold change over baseline; for CD25 staining CD3/CD28 0.3 μM / IL-2 secretion CD3/CD28 0.3 μM: 0.3 μM inhibitor; for CD25 staining CD3/CD28 0.3 μM / IL-2 secretion CD3/CD28 0.3 μM / CD25 staining CD3/CD28 1 μM / IL-2 secretion CD3/CD28 1 μM: anti-CD3 and anti-CD28 co-stimulation; for CD25 staining CD3/CD28 1 μM / IL-2 secretion CD3/CD28 1 μM / CD25 staining CD3 1 μM / IL-2 secretion CD3 1 μM: 1 μM inhibitor; for CD25 staining CD3 1 μM / IL-2 secretion CD3 1 μM / CD25 staining CD3 3 μM / IL-2 secretion CD3 3 μM: anti-CD3 stimulation alone; for CD25 staining CD3 3 μM / IL-2 secretion CD3 3 μM: 3 μM inhibitor
[5] = tested on: primary human total T-cells; experiment: Primary human total T-cell activation (IL-2 secretion, CD25 surface staining), Biological Example 9; conditions: fold change over baseline, Table 9-1; for IL-2 secretion CD3/CD28 0.3 μM: 0.3 μM inhibitor; for IL-2 secretion CD3/CD28 0.3 μM / IL-2 secretion CD3/CD28 1 μM: anti-CD3 and anti-CD28 co-stimulation; for IL-2 secretion CD3/CD28 1 μM / IL-2 secretion CD3 1 μM: 1 μM inhibitor
Procedure: Peripheral blood mononuclear cells (PBMC) were obtained either: 1) by using Ficoll-Paque™ (GE Healthcare) for separation of peripheral blood hematopoietic cells from buffy coats of healthy human donors; or 2) directly from LeukoPak donations. […] The cells were rested overnight at 37° C. 5% CO2. The Cbl-inhibitor was added to 1×10^5 cells per well and the plate was incubated for one hour at 37° C. in 5% CO2 at the concentrations indicated (Table 9-1) with a final DMSO concentration of <0.1%. For samples stimulated with anti-CD3 antibody and anti-CD28 antibody (anti-CD3/anti-CD28), the Cbl-b inhibitor concentrations tested were 1 μM, and 0.3 μM. For samples stimulated with anti-CD3 antibody alone (anti-CD3), the Cbl-b inhibitor concentrations tested were 3 μM, and 1 μM. […] To prepare plates with plate bound anti-CD3 antibody (OKT3), 96-well round bottom tissue culture plates were coated with 100 μL of anti-CD3 antibody (OKT3) at 10 μg/mL for 4 hours at 37° C. 5% CO2 in phosphate buffered saline (PBS). […] Cells were stimulated for 48 hours prior to harvesting the cell free supernatant and staining the cell population for surface marker assessment by flow cytometry. Supernatants were analyzed for cytokine secretion, including IL-2 by ELISA (R&D Systems, Peprotech or Life Technologies) or Luminex multiplex kits (Procarta Life Technologies) following the manufacturer's protocol. Cells were stained with anti-CD25 antibody (BD Biosciences) to assess levels of surface marker of activation.
Readouts were reported as fold change over baseline. Baseline for this study was the measurement obtained from total human T-cells stimulated with anti-CD3 antibody and with soluble anti-CD28 antibody, wherein the cells were not incubated with a Cbl-b inhibitor (Table 9-1). […] For T-cells stimulated with anti-CD3 alone, changes greater than 0.1-fold over baseline for IL-2 secretion and greater than 0.6-fold over baseline for CD25 surface staining were considered significant and a positive response.

[6] = tested on: primary human total T-cells; experiment: Primary human total T-cell activation (IL-2 secretion, CD25 surface staining), Biological Example 12; conditions: fold change over baseline, Table 12-1; for IL-2 secretion CD3/CD28 0.3 μM: 0.3 μM inhibitor; for IL-2 secretion CD3/CD28 0.3 μM / IL-2 secretion CD3/CD28 1 μM: anti-CD3 and anti-CD28 co-stimulation; for IL-2 secretion CD3/CD28 1 μM / IL-2 secretion CD3 1 μM: 1 μM inhibitor
Procedure: Peripheral blood mononuclear cells (PBMC) were obtained either: 1) by using Ficoll-Paque™ (GE Healthcare) for separation of peripheral blood hematopoietic cells from buffy coats of healthy human donors; or 2) directly from LeukoPak donations. […] The cells were rested overnight at 37° C. 5% CO2. The Cbl-inhibitor was added to 1×10^5 cells per well and the plate was incubated for one hour at 37° C. in 5% CO2 at the concentrations indicated (Table 12-1) with a final DMSO concentration of <0.1%. For samples stimulated with anti-CD3 antibody and anti-CD28 antibody (anti-CD3/anti-CD28), the Cbl-b inhibitor concentrations tested were 1 μM, and 0.3 μM. For samples stimulated with anti-CD3 antibody alone (anti-CD3), the Cbl-b inhibitor concentrations tested were 3 μM, and 1 μM. […] To prepare plates with plate bound anti-CD3 antibody (OKT3), 96-well round bottom tissue culture plates were coated with 100 μL of anti-CD3 antibody (OKT3) at 10 μg/mL for 4 hours at 37° C. 5% CO2 in phosphate buffered saline (PBS). […] Cells were stimulated for 48 hours prior to harvesting the cell free supernatant and staining the cell population for surface marker assessment by flow cytometry. Supernatants were analyzed for cytokine secretion, including IL-2 by ELISA (R&D Systems, Peprotech or Life Technologies) or Luminex multiplex kits (Procarta Life Technologies) following the manufacturer's protocol. Cells were stained with anti-CD25 antibody (BD Biosciences) to assess levels of surface marker of activation.
Readouts were reported as fold change over baseline. Baseline for this study was the measurement obtained from total human T-cells stimulated with anti-CD3 antibody and with soluble anti-CD28 antibody, wherein the cells were not incubated with a Cbl-b inhibitor (Table 12-1). […] For T-cells stimulated with anti-CD3 alone, changes greater than 0.1-fold over baseline for IL-2 secretion and greater than 0.6-fold over baseline for CD25 surface staining were considered significant and a positive response.

[7] = 0.125 nM Cbl-b final concentration (Low), read-out: Cbl-b activity IC50 (Low)
[8] = 3 μM inhibitor, anti-CD3 stimulation alone
[9] = read-out: IC50 values in the Cbl-b inhibition assay of Biological Example 1

T1 sequence (Q13191 36-427): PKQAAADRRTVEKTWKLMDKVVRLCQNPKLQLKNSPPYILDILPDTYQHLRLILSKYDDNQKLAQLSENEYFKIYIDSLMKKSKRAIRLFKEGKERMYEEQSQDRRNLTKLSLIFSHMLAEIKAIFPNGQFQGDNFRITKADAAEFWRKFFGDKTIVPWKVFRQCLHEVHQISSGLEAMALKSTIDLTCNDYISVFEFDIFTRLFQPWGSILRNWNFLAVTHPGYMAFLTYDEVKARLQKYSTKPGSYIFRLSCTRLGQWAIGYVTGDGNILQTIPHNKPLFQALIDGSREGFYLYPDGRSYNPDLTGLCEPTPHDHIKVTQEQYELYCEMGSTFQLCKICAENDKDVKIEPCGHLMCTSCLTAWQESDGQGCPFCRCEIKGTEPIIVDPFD

## C[C@H]1CCCN(Cc2cc3c(c(C(F)(F)F)c2)CN(c2cccc(C4(c5nncn5C)CC5(CC5)C4)c2)C3=O)C1 [Compound 42, 6-[[(3S)-3-methyl-1-piperidyl]methyl]-2-[3-[5-(4-methyl-1,2,4-triazol-3-yl)spiro[2.3]hexan-5-yl]phenyl]-4-(trifluoromethyl)isoindolin-1-one]
[1]; [7]
  IC50: < 5 nM
[2]
  IC50: < 1 nM
[3]
  IC50: < 1 nM
[4]
  CD25 staining CD3/CD28 0.3 μM: B (B indicates 1.24-1.39 fold)
  IL-2 secretion CD3/CD28 0.3 μM: B (B indicates 20-35 fold)
  CD25 staining CD3/CD28 1 μM: B (B indicates 1.24-1.39 fold)
  IL-2 secretion CD3/CD28 1 μM: A (A indicates >35 fold)
  CD25 staining CD3 1 μM: A (A indicates >2.5 fold)
  IL-2 secretion CD3 1 μM: A (A indicates >1.1 fold)
  CD25 staining CD3 3 μM: A (A indicates >2.5 fold)
  IL-2 secretion CD3 3 μM: A (A indicates >1.1 fold)
[5]
  IL-2 secretion CD3/CD28 0.3 μM: A (A indicates >15 fold)
  IL-2 secretion CD3/CD28 1 μM: A (A indicates >15 fold)
[5]; anti-CD3 stimulation alone
  IL-2 secretion CD3 1 μM: A (A indicates >0.66 fold)
[5]; [8]
  IL-2 secretion CD3 3 μM: A (A indicates >0.66 fold)
[6]
  IL-2 secretion CD3/CD28 0.3 μM: A (A indicates >15 fold)
  IL-2 secretion CD3/CD28 1 μM: A (A indicates >15 fold)
[6]; anti-CD3 stimulation alone
  IL-2 secretion CD3 1 μM: A (A indicates >0.66 fold)
[6]; [8]
  IL-2 secretion CD3 3 μM: A (A indicates >0.66 fold)

## C[C@@H]1CN(Cc2cc3c(c(C(F)(F)F)c2)CN(c2cccc([C@H](c4nncn4C)C4CCC4)c2)C3=O)CCO1 [Compound 17, 2-(3-((R)-cyclobutyl(4-methyl-4H-1,2,4-triazol-3-yl)methyl)phenyl)-6-(((R)-2-methylmorpholino)methyl)-4-(trifluoromethyl)isoindolin-1-one]
[1]; [7]
  IC50: < 5 nM
[4]
  CD25 staining CD3/CD28 0.3 μM: B (B indicates 1.24-1.39 fold)
  IL-2 secretion CD3/CD28 0.3 μM: B (B indicates 20-35 fold)
  CD25 staining CD3/CD28 1 μM: B (B indicates 1.24-1.39 fold)
  IL-2 secretion CD3/CD28 1 μM: A (A indicates >35 fold)
  CD25 staining CD3 1 μM: B (B indicates 1.5-2.5 fold)
  IL-2 secretion CD3 1 μM: A (A indicates >1.1 fold)
  CD25 staining CD3 3 μM: B (B indicates 1.5-2.5 fold)
  IL-2 secretion CD3 3 μM: A (A indicates >1.1 fold)
[5]
  IL-2 secretion CD3/CD28 0.3 μM: B (B indicates 10-15 fold)
  IL-2 secretion CD3/CD28 1 μM: A (A indicates >15 fold)
[5]; anti-CD3 stimulation alone
  IL-2 secretion CD3 1 μM: A (A indicates >0.66 fold)
[5]; [8]
  CD25 staining CD3 3 μM: B (B indicates 1.05-1.14 fold)
  IL-2 secretion CD3 3 μM: A (A indicates >0.66 fold)
[6]
  IL-2 secretion CD3/CD28 0.3 μM: B (B indicates 11-15 fold)
  IL-2 secretion CD3/CD28 1 μM: A (A indicates >15 fold)
[6]; anti-CD3 stimulation alone
  IL-2 secretion CD3 1 μM: A (A indicates >0.66 fold)
[6]; [8]
  CD25 staining CD3 3 μM: B (B indicates 1.05-1.14 fold)
  IL-2 secretion CD3 3 μM: A (A indicates >0.66 fold)

## C[C@H]1CCCN(Cc2cc3c(c(C(F)(F)F)c2)CN(c2cccc([C@]4(c5nncn5C)C[C@@H](C#N)C4)c2)C3=O)C1 [Compound 38, (1R,3s)-3-(4-methyl-4H-1,2,4-triazol-3-yl)-3-(3-(6-(((S)-3-methylpiperidin-1-yl)methyl)-1-oxo-4-(trifluoromethyl)isoindolin-2-yl)phenyl)cyclobutane-1-carbonitrile]
[1]; [7]
  IC50: < 5 nM
[2]
  IC50: 1 to 5 nM
[3]
  IC50: 1 to 5 nM
[4]
  IL-2 secretion CD3/CD28 0.3 μM: B (B indicates 20-35 fold)
  IL-2 secretion CD3/CD28 1 μM: B (B indicates 20-35 fold)
  CD25 staining CD3 1 μM: A (A indicates >2.5 fold)
  IL-2 secretion CD3 1 μM: A (A indicates >1.1 fold)
  CD25 staining CD3 3 μM: A (A indicates >2.5 fold)
  IL-2 secretion CD3 3 μM: B (B indicates 0.70-1.1 fold)
[5]
  IL-2 secretion CD3/CD28 0.3 μM: A (A indicates >15 fold)
  IL-2 secretion CD3/CD28 1 μM: A (A indicates >15 fold)
[5]; anti-CD3 stimulation alone
  IL-2 secretion CD3 1 μM: A (A indicates >0.66 fold)
[5]; [8]
  IL-2 secretion CD3 3 μM: A (A indicates >0.66 fold)
[6]
  IL-2 secretion CD3/CD28 0.3 μM: A (A indicates >15 fold)
  IL-2 secretion CD3/CD28 1 μM: A (A indicates >15 fold)
[6]; anti-CD3 stimulation alone
  IL-2 secretion CD3 1 μM: A (A indicates >0.66 fold)
[6]; [8]
  IL-2 secretion CD3 3 μM: A (A indicates >0.66 fold)

## C[C@H]1CCCN(Cc2cc3c(c(C(F)(F)F)c2)CN(c2cccc([C@H](c4nncn4C)C4CCC4)c2)C3=O)C1 [Compound 3, 2-(3-((R)-cyclobutyl(4-methyl-4H-1,2,4-triazol-3-yl)methyl)phenyl)-6-(((S)-3-methylpiperidin-1-yl)methyl)-4-(trifluoromethyl)isoindolin-1-one]
[1]; [7]
  IC50: < 5 nM
[1]; [9]
  IC50: ≤ 5 nM
[2]
  IC50: < 1 nM
[3]
  IC50: < 1 nM
[4]
  IL-2 secretion CD3/CD28 0.3 μM: A (A indicates >35 fold)
  IL-2 secretion CD3/CD28 1 μM: A (A indicates >35 fold)
  CD25 staining CD3 1 μM: A (A indicates >2.5 fold)
  IL-2 secretion CD3 1 μM: A (A indicates >1.1 fold)
  CD25 staining CD3 3 μM: A (A indicates >2.5 fold)
  IL-2 secretion CD3 3 μM: A (A indicates >1.1 fold)
[5]
  IL-2 secretion CD3/CD28 0.3 μM: A (A indicates >15 fold)
  IL-2 secretion CD3/CD28 1 μM: A (A indicates >15 fold)
[5]; anti-CD3 stimulation alone
  IL-2 secretion CD3 1 μM: A (A indicates >0.66 fold)
[5]; [8]
  IL-2 secretion CD3 3 μM: A (A indicates >0.66 fold)
[6]
  IL-2 secretion CD3/CD28 0.3 μM: A (A indicates >15 fold)
  IL-2 secretion CD3/CD28 1 μM: A (A indicates >15 fold)
[6]; anti-CD3 stimulation alone
  IL-2 secretion CD3 1 μM: A (A indicates >0.66 fold)
[6]; [8]
  IL-2 secretion CD3 3 μM: A (A indicates >0.66 fold)

## C[C@@H]1CN(Cc2cc3c(c(C(F)(F)F)c2)CN(c2cccc([C@H](c4nncn4C)C4CCC4)c2)C3=O)CCC1(F)F [Compound 1, 2-(3-((R)-cyclobutyl(4-methyl-4H-1,2,4-triazol-3-yl)methyl)phenyl)-6-(((R)-4,4-difluoro-3-methylpiperidin-1-yl)methyl)-4-(trifluoromethyl)isoindolin-1-one]
[1]; [7]
  IC50: < 5 nM
[1]; [9]
  IC50: ≤ 5 nM
[4]
  CD25 staining CD3/CD28 0.3 μM: B (B indicates 1.24-1.39 fold)
  IL-2 secretion CD3/CD28 0.3 μM: B (B indicates 20-35 fold)
  CD25 staining CD3/CD28 1 μM: B (B indicates 1.24-1.39 fold)
  IL-2 secretion CD3/CD28 1 μM: B (B indicates 20-35 fold)
  CD25 staining CD3 1 μM: A (A indicates >2.5 fold)
  IL-2 secretion CD3 1 μM: A (A indicates >1.1 fold)
  CD25 staining CD3 3 μM: A (A indicates >2.5 fold)
  IL-2 secretion CD3 3 μM: A (A indicates >1.1 fold)

## CO[C@H]1C[C@@](c2cccc(N3Cc4c(cc(CN5CCC(F)(F)[C@H](C)C5)cc4C(F)(F)F)C3=O)c2)(c2nncn2C)C1 [Compound 33, 6-(((R)-4,4-difluoro-3-methylpiperidin-1-yl)methyl)-2-(3-((1s,3S)-3-methoxy-1-(4-methyl-4H-1,2,4-triazol-3-yl)cyclobutyl)phenyl)-4-(trifluoromethyl)isoindolin-1-one]
[1]; [7]
  IC50: 5 to 20 nM
[4]
  CD25 staining CD3/CD28 0.3 μM: B (B indicates 1.24-1.39 fold)
  IL-2 secretion CD3/CD28 0.3 μM: C (C indicates <20 fold)
  IL-2 secretion CD3/CD28 1 μM: B (B indicates 20-35 fold)
  CD25 staining CD3 1 μM: A (A indicates >2.5 fold)
  IL-2 secretion CD3 1 μM: A (A indicates >1.1 fold)
  CD25 staining CD3 3 μM: A (A indicates >2.5 fold)
  IL-2 secretion CD3 3 μM: A (A indicates >1.1 fold)
